Where a name gives a salt, the structure may show the parent alone.

The subject of the first assay is clot lysis (fibrinolysis) in human citrated plasma, tPA-induced. Description: Plasma-based clot lysis assay (5%). In kind it is biochemical. The following applies: diluted human citrated plasma (platelet-poor, 5%), fibrinogen 3 μM, CaCl2 10 mM, tPA 0.2 nM, 37° C., OD 405 nm. The method, then: B-2. Plasma-based Clot Lysis Assay (5%)
The clot-lysis test system configures the kinetics of clot formation and degradation in vitro and allows quantifying modulation of the process by selected test compounds.
The test compounds were dissolved in 1% acetic acid and further complemented with an equal volume of DMSO. The resulting stock solutions were serially diluted in 0.5% acetic acid/50% DMSO. 1 μL aliquots of these solutions were placed into 384 well microplates (Greiner, black, transparent bottom), followed by 30 μL of diluted human citrated plasma (platelet-poor, final concentration: 5%; supplemented with fibrinogen, final concentration: 3 μM; dilution buffer: 20 mM HEPES, 150 mM NaCl, 0.01% Brij (pH 7)). The reactions were started by addition of […] of CaCl2 (final concentration: 10 mM), and tPA (tissue plasminogen activator, final concentration: 0.2 nM) in dilution buffer, followed by an additional volume of 20 μL dilution buffer for improved mixing. The reactions were incubated at 37° C. Clot formation and degradation was monitored spectrophotometrically by kinetic optical density measurements at 405 nm. IC50 values were determined by comparing the resulting time courses with the time course of a blank control reaction.
By IC50 is commonly meant the concentration needed to halve the response being measured. High values mean weaker potency, low ones greater potency. The molecule `O=c1cc(C2CCNCC2)n2nc3cc(C(F)(F)F)cc([N+](=O)[O-])c3c2[nH]1` [Example 31, 10-Nitro-4-(piperidin-4-yl)-8-(trifluoromethyl)pyrimido[1,2-b]indazol-2(1H)-one hydrochloride] returned an IC50 of 97 nM.

On to `Cc1ccccc1-c1cccc2nn3c(C4CCNCC4)cc(=O)[nH]c3c12` [Example 85, 10-(2-Methylphenyl)-4-(piperidin-4-yl)pyrimido[1,2-b]indazol-2(1H)-one hydrochloride], for which the IC50 was 18 nM. This IC50 is about 5.4-fold lower than that of the molecule before.

`CCC(C)c1cccc2nn3c(C4CCNCC4)cc(=O)[nH]c3c12` (stereo not drawn) [Example 72, 10-sec-Butyl-4-(piperidin-4-yl)pyrimido[1,2-b]indazol-2(1H)-one hydrochloride] had an IC50 of 14 nM.

The molecule `Cn1cc(-c2cccc3nn4c(C5CCNCC5)cc(=O)[nH]c4c23)cn1` [Example 87, 10-(1-Methyl-1H-pyrazol-4-yl)-4-(piperidin-4-yl)pyrimido[1,2-b]indazol-2(1H)-one hydrochloride] returned an IC50 of 25 nM.

Turning to `Cc1cc(C(F)(F)F)nc2nn3c(C4CCNCC4)cc(=O)[nH]c3c12` [Example 14, 10-Methyl-4-(piperidin-4-yl)-8-(trifluoromethyl)pyrido[2′,3′:3,4]pyrazolo[1,5-a]pyrimidin-2(1H)-one hydrochloride], the IC50 turned out to be 50 nM.

Regarding `O=c1cc(C2CCNCC2)n2nc3cccc(-c4ccccc4C(F)(F)F)c3c2[nH]1` [Example 67, 4-(Piperidin-4-yl)-10-[2-(trifluoromethyl)phenyl]pyrimido[1,2-b]indazol-2(1H)-one hydrochloride], the IC50 amounted to 13 nM.

Molecule `O=c1cc(C2CCNCC2)n2nc3ccc(F)c(Br)c3c2[nH]1` [Example 70, 10-Bromo-9-fluoro-4-(piperidin-4-yl)pyrimido[1,2-b]indazol-2(1H)-one hydrochloride] yielded a half-maximal inhibitory concentration (IC50) of 35 nM.

With `CCOc1cccc2nn3c(C4CCNCC4)cc(=O)[nH]c3c12` [Example 26, 10-Ethoxy-4-(piperidin-4-yl)pyrimido[1,2-b]indazol-2(1H)-one hydrochloride], inhibition was half-maximal at 29 nM (IC50). The IC50 values of the last two molecules are within 1.5-fold of each other.

As for `Cc1nnc2nn3c(C4CCNCC4)cc(=O)[nH]c3c2c1C` [Example 17, 3,4-Dimethyl-8-(piperidin-4-yl)pyrimido[1′,2′:1,5]pyrazolo[3,4-c]pyridazin-6(5H)-one hydrochloride], the IC50 was found to be 22 nM.

Molecule `CC(C)Cc1cccc2nn3c(C4CCNCC4)cc(=O)[nH]c3c12` [Example 73, 10-Isobutyl-4-(piperidin-4-yl)pyrimido[1,2-b]indazol-2(1H)-one hydrochloride] showed an IC50 of 23 nM.

With `O=c1cc(C2CCNCC2)n2nc3cccc(C4CC4)c3c2[nH]1` [Example 61, 10-Cyclopropyl-4-(piperidin-4-yl)pyrimido[1,2-b]indazol-2(1H)-one hydrochloride], the IC50 turned out to be 24 nM.

`O=c1cc(C2CCNCC2)n2nc3cccc(I)c3c2[nH]1` [Example 20, 10-Iodo-4-(piperidin-4-yl)pyrimido[1,2-b]indazol-2(1H)-one hydrochloride] came in with an IC50 of 22 nM.

`O=c1cc(C2CCNCC2)n2nc3cccc(OCC(F)(F)F)c3c2[nH]1` [Example 107, 4-(piperidin-4-yl)-10-(2,2,2-trifluoroethoxy)pyrimido[1,2-b]indazol-2(1H)-one hydrochloride] registered an IC50 of 34 nM.

Consider `Cc1ccc2nn3c(C4CCNCC4)cc(=O)[nH]c3c2c1Cl` [Example 69, 10-Chloro-9-methyl-4-(piperidin-4-yl)pyrimido[1,2-b]indazol-2(1H)-one hydrochloride], for which the IC50 is 20 nM.

In the case of `O=c1cc(C2CCNCC2)n2nc3cc(F)cc(Br)c3c2[nH]1` [Example 81, 10-Bromo-8-fluoro-4-(piperidin-4-yl)pyrimido[1,2-b]indazol-2(1H)-one hydrochloride], the IC50 was 16 nM. The IC50 values of the last two molecules are within 1.5-fold of each other.

Turning to `O=c1cc(C2CCNCC2)n2nc3c(F)cccc3c2[nH]1` [Example 28, 7-Fluoro-4-(piperidin-4-yl)pyrimido[1,2-b]indazol-2(1H)-one hydrochloride], the IC50 was 33 nM.

As for `O=c1cc(C2CCNCC2)n2nc3nc(-c4ccccc4)ccc3c2[nH]1` [Example 44, 8-Phenyl-4-(piperidin-4-yl)pyrido[2′,3′:3,4]pyrazolo[1,5-a]pyrimidin-2(1H)-one hydrochloride], half-maximal inhibition (IC50) was put at 48 nM.

In the case of `O=c1cc(C2CCNCC2)n2nc3cc(C(F)(F)F)ccc3c2[nH]1` [Example 11, 4-(Piperidin-4-yl)-8-(trifluoromethyl)pyrimido[1,2-b]indazol-2(1H)-one hydrochloride], the IC50 turned out to be 26 nM. This IC50 lies about 1.8-fold lower than the previous one.

As to `O=c1cc(C2CCNCC2)n2nc3cccc(-n4ccnn4)c3c2[nH]1` [Example 99, 4-(Piperidin-4-yl)-10-(1H-1,2,3-triazol-1-yl)pyrimido[1,2-b]indazol-2(1H)-one hydrochloride], half-maximal inhibition (IC50) required 29 nM.

`COc1ccccc1-c1cccc2nn3c(C4CCNCC4)cc(=O)[nH]c3c12` [Example 65, 10-(2-Methoxyphenyl)-4-(piperidin-4-yl)pyrimido[1,2-b]indazol-2(1H)-one hydrochloride] had an IC50 of 25 nM.

The molecule `O=c1cc(C2CCNCC2)n2nc3c(Cl)cc(Cl)cc3c2[nH]1` [Example 6, 7,9-Dichloro-4-(piperidin-4-yl)pyrimido[1,2-b]indazol-2(1H)-one hydrochloride] had an IC50 of 94 nM.

Molecule `O=c1cc(C2CCNCC2)n2nc3cccc(-c4nccs4)c3c2[nH]1` [Example 83, 4-(Piperidin-4-yl)-10-(1,3-thiazol-2-yl)pyrimido[1,2-b]indazol-2(1H)-one hydrochloride] had an IC50 of 41 nM.

The molecule `O=c1cc(C2CCNCC2)n2nc3cc(F)ccc3c2[nH]1` [Example 18, 8-Fluoro-4-(piperidin-4-yl)pyrimido[1,2-b]indazol-2(1H)-one hydrochloride] displayed a half-inhibitory concentration (IC50) of 38 nM.

In the case of `O=c1cc(C2CCNCC2)n2nc3nc(-c4ccc(F)cc4)cc(C(F)(F)F)c3c2[nH]1` [Example 42, 8-(4-Fluorophenyl)-4-(piperidin-4-yl)-10-(trifluoromethyl)pyrido[2′,3′:3,4]pyrazolo[1,5-a]pyrimidin-2(1H)-one hydrochloride], the IC50 came to 110 nM.

Regarding `O=c1cc(C2CCNCC2)n2nc3c(Cl)cccc3c2[nH]1` [Example 22, 7-Chloro-4-(piperidin-4-yl)pyrimido[1,2-b]indazol-2(1H)-one hydrochloride], half-maximal inhibition (IC50) was put at 26 nM.

Regarding `O=c1cc(C2CCNCC2)n2nc3c(Br)cncc3c2[nH]1` [Example 27, 7-Bromo-4-(piperidin-4-yl)pyrido[4′,3′:3,4]pyrazolo[1,5-a]pyrimidin-2(1H)-one hydrochloride], the IC50 came to 13 nM. Compared with the last molecule, the IC50 is about 2-fold lower.

In turn, `O=c1cc(C2CCNCC2)n2nc3cccc(-c4ccc[nH]4)c3c2[nH]1` [Example 104, 4-(piperidin-4-yl)-10-(1H-pyrrol-2-yl)pyrimido[1,2-b]indazol-2(1H)-one hydrochloride] came in with an IC50 of 35 nM.

Molecule `Cc1cc(Cl)c2c(c1)nn1c(C3CCNCC3)cc(=O)[nH]c21` [Example 79, 10-Chloro-8-methyl-4-(piperidin-4-yl)pyrimido[1,2-b]indazol-2(1H)-one hydrochloride] registered an IC50 of 11 nM.

On to `COc1cccc(F)c1-c1cccc2nn3c(C4CCNCC4)cc(=O)[nH]c3c12` [Example 97, 10-(2-Fluoro-6-methoxyphenyl)-4-(piperidin-4-yl)pyrimido[1,2-b]indazol-2(1H)-one hydrochloride], for which the IC50 amounted to 30 nM.

As for `C[C@H]1C[C@H](c2cc(=O)[nH]c3c4c(Br)cccc4nn23)CCN1` [Example 50, (−)-trans-10-Bromo-4-(2-methylpiperidin-4-yl)pyrimido[1,2-b]indazol-2(1H)-one hydrochloride], half-maximal inhibition (IC50) was put at 14 nM.

Molecule `O=c1cc(C2CCNCC2)n2nc3nccc(-c4ccccc4)c3c2[nH]1` [Example 46, 10-Phenyl-4-(piperidin-4-yl)pyrido[2′,3′:3,4]pyrazolo[1,5-a]pyrimidin-2(1H)-one hydrochloride] showed an IC50 of 17 nM.

`O=c1cc(C2CCNCC2)n2nc3cc(F)cc(F)c3c2[nH]1` [Example 23, 8,10-Difluoro-4-(piperidin-4-yl)pyrimido[1,2-b]indazol-2(1H)-one hydrochloride] returned an IC50 of 28 nM.

In turn, `Cc1cccc2nn3c(C4CCNCC4)cc(=O)[nH]c3c12` [Example 36, 10-Methyl-4-(piperidin-4-yl)pyrimido[1,2-b]indazol-2(1H)-one hydrochloride] had an IC50 of 18 nM.

In turn, `Cc1ccc2c(n1)nn1c(C3CCNCC3)cc(=O)[nH]c21` [Example 24, 8-Methyl-4-(piperidin-4-yl)pyrido[2′,3′:3,4]pyrazolo[1,5-a]pyrimidin-2(1H)-one hydrochloride] came in with an IC50 of 34 nM. Against the preceding molecule, the IC50 is about 1.9-fold higher.

`CCOc1cccc2nn3c([C@@H]4CCN[C@@H](C)C4)cc(=O)[nH]c3c12` [Example 52, (−)-trans-10-Ethoxy-4-(2-methylpiperidin-4-yl)pyrimido[1,2-b]indazol-2(1H)-one hydrochloride] returned an IC50 of 13 nM. This IC50 lies about 2.6-fold lower than the previous one.

The assay is the same for the next values; noted with them: diluted human citrated plasma (platelet-poor, 5%), fibrinogen 3 μM, CaCl2 10 mM, tPA 0.2 nM, 37° C., OD 405 nm; hydrochloride.
In the case of `O=c1cc(C2CCNCC2)n2nc3cccc(-c4ccccc4F)c3c2[nH]1` [Example 57, 10-(2-Fluorophenyl)-4-(piperidin-4-yl)pyrimido[1,2-b]indazol-2(1H)-one hydrochloride], 13 nM corresponded to half-maximal inhibition (IC50).

Source of the values: US10098883B2, “(Aza)pyridopyrazolopyrimidinones and indazolopyrimidinones and their use” (BAYER PHARMA AKTIENGESELLSCHAFT, priority 2013, dated 2018).
